Measured values from patent publication US9751837B2, “Kinase inhibitors” (RESPIVERT LIMITED, priority 2014, dated 2017).
pIC50: −log10 of the molar value. Converted amounts (≈) assume the structure as drawn. Read-outs that look alike come from different tables or passages of the source.

Assays:
GSK 3α = GSK 3α (Homo sapiens (Human), UniProt P49840); experiment: GSK 3α enzyme inhibition (Method 2), Z-LYTE FRET; assay type: biochemical; settings: read-out: IC50 Values for Enzyme Inhibition GSK3α
Protocol: The enzyme inhibitory activities of compounds disclosed herein are determined by FRET using synthetic peptides labelled with both donor and acceptor fluorophores (Z-LYTE, Invitrogen Ltd., Paisley, UK).
The following two assay variants can be used for determination of GSK 3α inhibition.
The inhibitory activities of compounds of the invention against the GSK 3α enzyme isoform (Invitrogen), are evaluated by determining the level of activation/phosphorylation of the target peptide. The GSK3-α protein (500 ng/mL, 2.5 μL) is mixed with the test compound (2.5 μL at either 4 μg/mL, 0.4 μg/mL, 0.04 μg/mL, or 0.004 μg/mL) for 2 hr at RT. The FRET peptide (8 μM, 2.5 μL), which is a phosphorylation target for GSK3α, and ATP (40 μM, 2.5 μL) are then added to the enzyme/compound mixture and the resulting mixture incubated for 1 hr. Development reagent (protease, 5 μL) is added for 1 hr prior to detection in a fluorescence microplate reader (Varioskan® Flash, ThermoFisher Scientific).
In all cases, the site-specific protease cleaves non-phosphorylated peptide only and eliminates the FRET signal. Phosphorylation levels of each reaction are calculated using the ratio of coumarin emission (donor) over fluorescein emission (acceptor), for which high ratios indicate high phosphorylation and low ratios indicate low phosphorylation levels.
This method follows the same steps as Method 1 above, but utilises a shorter period of mixing of the test compound (105 minutes instead of 2 hours) with the GSK3-α protein. In addition, the concentrations of test compound employed are either 10 μg/mL, 1 μg/mL, 0.1 μg/mL, or 0.01 μg/mL

Jurkat cells = experiment: Cell cytotoxicity assay (r); assay type: cell-based, human; settings: 24 hours
Summary of the method: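 Jurkat cells (1×10^5/well, RPMI + 10% FBS) exposed to compound at 20, 5 or 1 μg/mL final (1.0% DMSO control) for 24 h at 37° C., 5% CO2. Then stained with 7.5 μg/mL propidium iodide for 15 min. % viability = PI-negative cells by flow cytometry, normalized to DMSO.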

[1] = Solubility in fasted-state simulated colonic fluid (FaSSCoF) at pH 6.5; assay type: physicochemical; settings: 25 °C, pH 6.5, fassgf or other biorelevant, thermodynamic from solid
Summary of the method: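 Compounds were suspended at up to 2-10 mg/mL in pH 6.5 Tris/maleate FaSSCoF containing a five-bile-acid mixture, phosphatidylcholine, palmitic acid and BSA. After 24 h equilibration at 25° C the suspension was filtered and the filtrate quantified by HPLC peak area against a standard.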

[2] = Pharmacokinetics and total colon distribution after single oral administration; assay type: in vivo, male C57BL/6 mice; settings: male, C57BL/6, mouse, mice, Ex. 16 measured after oral 5 mg/kg of Ex. 19 (Na salt)
Protocol: Studies were conducted by Sai Life Sciences (Hinjewadi, Pune, India) to investigate the systemic pharmacokinetics and total colon tissue distribution of compounds of the invention. In particular, pharmacokinetic studies were carried out in male C57BL/6 mice following a single oral administration of the compound.

[3] = pH 6.5 FaSSCoF Solubility (mg/mL) Run 1
[4] = pH 6.5 FaSSCoF Solubility (mg/mL) Run 2
[5] = blood, read-out: Mean blood concentration
[6] = total colon, read-out: total colon level

Sequence of GSK 3α (P49840 whole entry): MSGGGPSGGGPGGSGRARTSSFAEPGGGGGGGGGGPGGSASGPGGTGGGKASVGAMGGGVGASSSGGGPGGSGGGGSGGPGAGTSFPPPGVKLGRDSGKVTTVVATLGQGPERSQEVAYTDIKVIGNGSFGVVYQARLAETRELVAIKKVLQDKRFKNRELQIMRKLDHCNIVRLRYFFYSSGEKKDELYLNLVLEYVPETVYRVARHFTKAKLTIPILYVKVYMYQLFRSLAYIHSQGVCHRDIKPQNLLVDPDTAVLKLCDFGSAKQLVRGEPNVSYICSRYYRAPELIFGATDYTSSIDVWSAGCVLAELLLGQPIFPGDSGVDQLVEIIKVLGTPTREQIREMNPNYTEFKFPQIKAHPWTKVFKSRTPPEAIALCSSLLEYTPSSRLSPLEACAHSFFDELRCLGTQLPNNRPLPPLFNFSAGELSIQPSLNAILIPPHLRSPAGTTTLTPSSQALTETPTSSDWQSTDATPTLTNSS

| pIC50 (GSK 3α) | solubility thermodynamic at 24 h [1, 3] [µg/mL] | solubility thermodynamic at 24 h [1, 4] [µg/mL] | SMILES | further results |
| --- | --- | --- | --- | --- |
| 5.51 | – | – | COCCN(C)CCNC(=O)c1ccc(Nc2cc(Oc3ccc(NC(=O)Nc4cc(C(C)(C)C)cc(NS(C)(=O)=O)c4OC)c4ccccc34)ccn2)cc1OC [17(ad), 4-[[4-[[4-[[5-tert-butyl-3-(methanesulfonamido)-2-methoxy-phenyl]carbamoylamino]-1-naphthyl]oxy]-2-pyridyl]amino]-2-methoxy-N-[2-[2-methoxyethyl(methyl)amino]ethyl]-benzamide] | % Viability at 5 μg/mL (Jurkat cells; 5 μg/mL): 6.3%; % Viability at 20 μg/mL (Jurkat cells): 0.4% |
| 5.43 | 4 (≈ 4.81 µM) | 4 (≈ 4.81 µM) | COc1cc(Nc2cc(Oc3ccc(NC(=O)Nc4cc(C(C)(C)C)cc(NS(C)(=O)=O)c4OC)c4ccccc34)ccn2)ccc1C(=O)NCCOCCOCCO [Example 16, 4-[[4-[[4-[[5-tert-Butyl-3-(methanesulfonamido)-2-methoxy-phenyl]carbamoylamino]-1-naphthyl]oxy]-2-pyridyl]amino]-N-[2-[2-(2-hydroxyethoxy)ethoxy]ethyl]-2-methoxy-benzamide] | concentration at 0.5 h [2, 5]: 1.3 ng/mL; concentration at 1 h [2, 5]: 1.4 ng/mL; concentration at 2 h [2, 5]: 0.6 ng/mL; concentration at 4 h [2, 5]: 0 ng/mL; concentration at 6 h [2, 5]: 0 ng/mL; concentration at 8 h [2, 5]: 0.2 ng/mL; concentration at 12 h [2, 5]: 0 ng/mL; concentration at 24 h [2, 5]: 0 ng/mL; concentration at 0.5 h [2, 6]: 9.5 ng/g; concentration at 1 h [2, 6]: 110 ng/g; concentration at 2 h [2, 6]: 2400 ng/g; concentration at 4 h [2, 6]: 3350 ng/g; concentration at 6 h [2, 6]: 3320 ng/g; concentration at 8 h [2, 6]: 3420 ng/g; concentration at 12 h [2, 6]: 5090 ng/g; concentration at 24 h [2, 6]: 0 ng/g |
| 5.52 | 11 (≈ 13.1 µM) | 12 (≈ 14.3 µM) | COc1cc(Nc2cc(Oc3ccc(NC(=O)Nc4cc(C(C)(C)C)cc(NS(C)(=O)=O)c4OC)c4ccccc34)ccn2)cc(OC)c1C(=O)NCCN1CCOCC1 [17(ae), 4-[[4-[[4-[[5-tert-butyl-3-(methanesulfonamido)-2-methoxy-phenyl]carbamoylamino]-1-naphthyl]oxy]-2-pyridyl]amino]-2,6-dimethoxy-N-(2-morpholinoethyl)benzamide] | – |
| 5.54 | – | – | COc1cc(Nc2cc(Oc3ccc(NC(=O)Nc4cc(C(C)(C)C)cc(NS(C)(=O)=O)c4OC)c4ccccc34)ccn2)ccc1C(=O)NCCN1CCN(CCO)CC1 [17(z), 4-[[4-[[4-[[5-tert-butyl-3-(methanesulfonamido)-2-methoxy-phenyl]carbamoylamino]-1-naphthyl]oxy]-2-pyridyl]amino]-N-[2-[4-(2-hydroxyethyl)piperazin-1-yl]ethyl]-2-methoxy-benzamide] | % Viability at 20 μg/mL (Jurkat cells): 2.0% |
| 5.74 | – | – | COc1cc(Nc2cc(Oc3ccc(NC(=O)Nc4cc(C(C)(C)C)cc(NS(C)(=O)=O)c4OC)c4ccccc34)ccn2)ccc1C(=O)NCC1CCN(C)CC1 [17(ak), 4-[[4-[[4-[[5-tert-butyl-3-(methanesulfonamido)-2-methoxy-phenyl]carbamoylamino]-1-naphthyl]oxy]-2-pyridyl]amino]-2-methoxy-N-[(1-methyl-4-piperidyl)methyl]benzamide] | % Viability at 1 μg/mL (Jurkat cells; 1 μg/mL): 99.0%; % Viability at 20 μg/mL (Jurkat cells): 0.4% |
| 6.86 | 6 (≈ 9.23 µM) | 6 (≈ 9.23 µM) | COc1cc(Nc2cc(Oc3ccc(NC(=O)Nc4cc(C(C)(C)C)cc(C(N)=O)c4OC)c4ccccc34)ccn2)ccc1C(=O)O [Example 3, 4-((4-((4-(3-(5-(tert-Butyl)-3-carbamoyl-2-methoxyphenyl)ureido)naphthalen-1-yl)oxy)pyridin-2-yl)amino)-2-methoxybenzoic acid] | – |
| 6.39 | 15 (≈ 17.5 µM) | 9 (≈ 10.5 µM) | COc1cc(Nc2cc(Oc3ccc(NC(=O)Nc4cc(C(C)(C)C)cc(NS(C)(=O)=O)c4OC)c4ccccc34)ccn2)ccc1C(=O)NCCOCCOCCC(=O)O [17(x), 3-[2-[2-[[4-[[4-[[4-[[5-tert-butyl-3-(methanesulfonamido)-2-methoxyphenyl]carbamoyl-amino]-1-naphthyl]oxy]-2-pyridyl]amino]-2-methoxy-benzoyl]amino]ethoxy]ethoxy]propanoic acid] | – |
| 5.35 | 15 (≈ 18.2 µM) | 15 (≈ 18.2 µM) | COc1cc(Nc2cc(Oc3ccc(NC(=O)Nc4cc(C(C)(C)C)cc(NS(C)(=O)=O)c4OC)c4ccccc34)ccn2)ccc1C(=O)NCCCN1CCOCC1 [17(b), 4-[[4-[[4-[[5-tert-butyl-3-(methanesulfonamido)-2-methoxy-phenyl]carbamoylamino]-1-naphthyl]oxy]-2-pyridyl]amino]-2-methoxy-N-(3-morpholinopropyl)benzamide] | – |
| 6.17 | 10 (≈ 11.9 µM) | 10 (≈ 11.9 µM) | COc1cc(Nc2cc(Oc3ccc(NC(=O)Nc4cc(C(C)(C)C)cc(NS(C)(=O)=O)c4OC)c4ccccc34)ccn2)ccc1C(=O)N(C)CCCN1CCOCC1 [17(af), 4-[[4-[[4-[[5-tert-butyl-3-(methanesulfonamido)-2-methoxy-phenyl]carbamoylamino]-1-naphthyl]oxy]-2-pyridyl]amino]-2-methoxy-N-methyl-N-(3-morpholinopropyl)benzamide] | – |
| < 4.92 | 8 (≈ 9.69 µM) | 8 (≈ 9.69 µM) | COc1cc(Nc2cc(Oc3ccc(NC(=O)Nc4cc(C(C)(C)C)cc(NS(C)(=O)=O)c4OC)c4ccccc34)ccn2)ccc1C(=O)N[C@@H](C)CN1CCOCC1 [17(v), 4-[[4-[[4-[[5-tert-butyl-3-(methanesulfonamido)-2-methoxy-phenyl]carbamoylamino]-1-naphthyl]oxy]-2-pyridyl]amino]-2-methoxy-N-[(1S)-1-methyl-2-morpholino-ethyl]benzamide] | – |
| 6.17 | – | – | COc1cc(Nc2cc(Oc3ccc(NC(=O)Nc4cc(C(C)(C)C)cc(NS(C)(=O)=O)c4OC)c4ccccc34)ccn2)ccc1C(=O)NCCN1CCNCC1 [17(w), 4-[[4-[[4-[[5-tert-butyl-3-(methanesulfonamido)-2-methoxy-phenyl]carbamoylamino]-1-naphthyl]oxy]-2-pyridyl]amino]-2-methoxy-N-(2-piperazin-1-ylethyl)benzamide] | – |
